The record followed here is PubChem BioAssay (NCI).

Several values for one entry are separate records, joined by “and”; a condition that tells them apart may be missing. Equal values may be shown once.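 Briefly, cells in 96-well plates were exposed to five compound concentrations for 48 h, and endpoints were estimated by linear interpolation. The concentration for 50% growth inhibition is given as GI50. TGI: total growth inhibition.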

Common to all, as to assay: growth of human tumour cells (NCI), 48 h
The test system of experiment [1] is K-562 leukemia.
Experiment [2] deals with UO-31 renal.
In experiment [3] the test system is CCRF-CEM leukemia.
Experiment [4] deals with M14 melanoma.
In experiment [5] the test system is SNB-75 CNS.
Experiment [6] has as its system A549 NSCLC.
The subject of experiment [7] is NCI-H460 lung.
For experiment [8], the system named is IGROV1 ovarian.
Experiment [9] concerns HCT-116 colon.
The test system of experiment [10] is EKVX NSCLC.

For `COc1cc(/C=C2\COc3ccc(O)c(O)c3C2=O)cc(OC)c1`, the GI50 in [1] is 0.471 µM; in [2], 1.02 µM; in experiment [3], 0.505 µM; in experiment [4], 1.56 µM; in [5], 2.42 µM; in [6], 2.16 µM. Also, the GI50 in experiment [7] was 1.81 µM; in experiment [8] it was 1.36 µM; in experiment [9], 1.56 µM; in [10] it was 2.12 µM. The TGI in [1] was over 100 µM; in [2], 2.29 µM; in experiment [3], over 100 µM; in [4], 4.55 µM; in experiment [5] it was 10.9 µM; in [6], 12.1 µM. In addition, the TGI in experiment [7] stood at 4.7 µM; in experiment [8], 5.22 µM; in experiment [9], 3.61 µM; in experiment [10], 5.53 µM.

As for `CCOC(=O)c1cn(Cc2ccccc2)c(=O)n1Cc1ccccc1`, the TGI in experiment [1], in experiment [2], in experiment [3], in experiment [4], in [5] and in experiment [6] was over 100 µM throughout. Also, the TGI in experiment [7], in experiment [8], in [9] and in experiment [10] was over 100 µM throughout.

In the case of `COC(=O)C1=C(C(=O)OC)C23C=C(C)C1C2=C(C)C1(CC1)[C@@](C)(O)C3=O` (stereo not given in full), the GI50 in experiment [1] is 6.07 µM; in experiment [2], 0.185 µM; in [3], 4.8 µM; in experiment [4], 0.316 µM; in [5] it was 0.198 µM; in [6] it was 0.255 µM. The GI50 in experiment [7] is 0.203 µM; in experiment [8], 0.275 µM; in experiment [9], 0.37 µM; in experiment [10] it was 0.615 µM. Moreover, the TGI is over 100 µM in [1]; 0.464 µM in experiment [2]; over 100 µM in [3]; 1.46 µM in [4]; 0.547 µM in experiment [5]; 0.858 µM in experiment [6]. The TGI in experiment [7] was 1.19 µM; in [9], 11.5 µM; in experiment [10], 5.42 µM.

In the case of `CCOC(=O)/C(=C/c1ccc(C#N)cc1)N(CC)CC`, the TGI in experiment [1], in experiment [2], in [3], in [4], in experiment [5] and in [6] was over 100 µM throughout. The TGI in experiment [7], in experiment [8], in experiment [9] and in [10] was over 100 µM throughout.

`O=c1cnn2c(n1)sc1ccc3ccccc3c12`: the TGI in [1], in [2], in [3], in [4], in experiment [5] and in experiment [6] was over 100 µM each time. For the same molecule, the TGI in experiment [7], in experiment [8], in experiment [9] and in [10] was over 100 µM in each case.

Regarding `CC(C)=CC(=O)Cc1nc2cc(C)c(C)cc2[nH]c1=O`, the TGI in experiment [1], in [2], in experiment [3], in experiment [4], in [5] and in experiment [6] was over 100 µM in each case. Further, the TGI in experiment [7], in experiment [8], in [9] and in [10] was over 100 µM throughout.

Take `CCCN(CCC)c1ccc(/C=N/NC(=O)c2cccnc2)c(Cl)c1`: the GI50 in experiment [1] was 3.75 µM; in experiment [2] it was 14.3 µM; in experiment [3] it was 15 µM; in [4] it was 8.71 µM; in [5], 11.4 µM; in experiment [6] it was 6.84 µM. Moreover, the GI50 in experiment [7] is 3.63 µM; in experiment [8] it was 1.21 µM; in [9], 2.88 µM; in [10] it was 17 µM. The TGI is over 100 µM in experiment [1]; 38.2 µM in experiment [2]; over 100 µM in experiment [3]; 23.2 µM in experiment [4]; 39.9 µM in experiment [5]; 36.1 µM in experiment [6]. Also, the TGI in experiment [7] worked out at 17.2 µM; in experiment [8], 15.6 µM; in experiment [9], 16 µM; in experiment [10], 71.4 µM.

In the case of `NC1=N/C(=C2/CCNC(=O)c3[nH]c(Br)cc32)C(=O)N1`, the TGI in [1] is over 100 µM; in experiment [2], > 73 µM and 29.8 µM; in experiment [3] it was over 100 µM; in [4] it was over 100 µM; in [5], over 91.5 µM; in experiment [6], over 100 µM. Further, the TGI in experiment [7], in experiment [8], in experiment [9] and in experiment [10] was over 100 µM throughout. Further, the GI50 in experiment [8] was 30.4 µM and 97 µM.

As for `Cc1cc(Cl)cc2c1NC(=O)C2(O)C(C)C(=O)c1ccc(Cl)cc1` (stereo not given), the TGI in [1] is over 100 µM; in experiment [2] it was over 100 µM; in [3], over 89.4 µM; in [4] it was over 100 µM; in experiment [5], over 100 µM; in [6] it was over 100 µM. For the same molecule, the TGI in experiment [7], in experiment [8], in experiment [9] and in [10] was over 100 µM each time.

For the molecule `NS(=O)(=O)c1ccc(N2N=C3c4ccccc4CC3C2c2ccc(Cl)cc2)cc1` (stereo not given), the GI50 is 10.6 µM in experiment [1]; 7.88 µM in experiment [2]; 6.48 µM in experiment [3]; 10.1 µM in experiment [4]; 2.97 µM in [5]; 10.8 µM in [6]. For the same molecule, the GI50 in [7] is 19.7 µM; in [8], 3.48 µM; in experiment [9] it was 6.04 µM; in experiment [10], 14.1 µM. For the same molecule, the TGI in [1] was over 100 µM; in [2], 23.8 µM; in experiment [3], 42.4 µM; in [4], 36.1 µM; in experiment [5], 7.94 µM; in experiment [6], 34 µM. Moreover, the TGI in experiment [7] was 41.8 µM; in experiment [8] it was 19.6 µM; in [9], over 100 µM; in [10] it was 58.9 µM.
